# Laboratory results: patent publication US9125415B2, “Thiophene based oligomers as light activated biocides” (STC, UNM, priority 2011, dated 2015)
# Marks after values point to notes of the source that are not given here.
# How the values were obtained:
# [1] = test system: Staphylococcus aureus (ATCC 10832); assay: Antibacterial studies, dead/live assay by flow cytometry (SYTO21 / propidium iodide); assay type: cell-based; settings: for dark antibacterial activity / dark toxicity (in words) / light-dependent toxicity versus the bacterial cells (in words) / percentage of killed S. aureus cells: 1 μg/mL oligomer; for dark antibacterial activity / dark toxicity (in words) / light-dependent toxicity versus the bacterial cells (in words): up to 90 min
# Text: There has been an increasing interest in the prevention of staphylococcal infections because of the increasing number of infections caused by methicillin-resistant S. aureus (MRSA), which is the most common cause of hospital-acquired infections. Our previous studies with oligo (phenylene ethynylene) type oligomers have clearly established that these oligomers are effective against variety of bacteria in the presence of light. […] As our objective is to develop visible light activated biocidal oligomers, we investigated the antibacterial activity of compounds 4a-c and against Staphylococcus aureus (S. aureus). After oligomer solutions were incubated with S. aureus under visible light illumination or in the dark, the antibacterial effect of the three oligomers was evaluated at time 0, 15, 30, 45, 60, and 90 min by flow cytometry analysis after staining the bacterial suspensions with live/dead fluorescent dyes (SYTO21, green fluorescence=live, and propidium iodide, red fluorescence=dead). FIGS. 7 and 8 show plots of the percentage of dead bacteria cells versus light exposure time of the thiophene-based oligomeric series at […]. […] The antibacterial efficiency of three oligomers increases with increasing irradiation time. In the control sample where oligomers were not added to the bacterial suspension most cells (>90% as shown in flow cytometry data) were viable and appear green fluorescence. Dark antibacterial activity was not observed from 4a and 4b; however, 4c kills ˜27% of bacteria after 90 min of incubation of bacteria with 4c.
# Staphylococcus aureus (ATCC 10832, American Type Culture Collection) was grown in Brain Heart Infusion (BHI, Difco) and stored at […] with 20% (v/v) glycerol (EMD) before use. Stock cultures maintained on agar plates (2%, Difco) were used to inoculate 50 mL cultures in liquid BHI. The cultures were incubated at 37° C. for 18 hours. The bacteria were then centrifuged and washed twice with 0.85% NaCl followed by counting in a hemocytometer to normalize bacterial concentration in 20 mL of 0.85% NaCl (8×10^6 cells/mL) for antibacterial tests. Control samples containing only bacterial cells, and desired concentrations of oligomer/bacteria mixture samples were exposed to the visible light for 15, 30, 45, 60 and 90 min in a LuzChem ORG photoreactor using Sylvania T5 bulbs (λ=350-799 nm). Another set of samples were incubated in the dark for 15, 30, 45, 60 and 90 min. Then dead/live assays were conducted using SYTO21 (green fluorescence=live) and propidium iodide (red fluorescence=dead) purchased from Invitrogen. After bacteria were incubated with the oligomers in the light and dark conditions, a 1:1 ratio of dyes (2.4 μL) were added to the samples and kept in the dark for 15 min. Finally, the bacteria were examined using an Accuri C6 flow cytometer where 2×10^4 cells were analyzed from 8×10^6 cell solution. The number of live cells and dead cells corresponding to green and red fluorescence respectively were counted and compared by flow cytometry. Results are shown graphically in FIGS. 7 and 8.
# [2] = UV-Visible absorption spectra; assay type: physicochemical; settings: for λmax (absorption): MeOH; for λmax (Absorption/nm): Water
# Description: (§1) NMR spectra were recorded using a Varian VXR-300 FT-NMR, operating at 300 MHz for ^1H NMR and at 75.4 MHz for ^13C NMR. UV-Visible spectra were recorded using a Varian Cary 100 dual beam spectrophotometer. Corrected steady-state fluorescence spectra were obtained with a PTI spectrometer. A 1 cm square quartz cuvette was used for solution spectra, and emission was collected at 90° relative to excitation beam. Fluorescence quantum yields are reported relative to known standards. The optical density of solutions at the excitation wavelength was ≦0.1, and corrections were applied for differences in the refractive index of standard and sample solutions. Transient absorption spectra were collected using a laser systems that is described elsewhere.^17,18 The optical density of the solutions was adjusted to ˜0.7 at the excitation wavelength (355 nm) with the laser energy set at 6-7 mJ. Solutions were purged with argon for 45 min before making transient absorption spectroscopy measurements. Singlet oxygen quantum yields were measured using a Photon Technology International Quantamaster near-IR spectrophotometer equipped with an InGaAs photodiode detector, optical chopper and a lock in amplifier.
# [3] = Singlet oxygen quantum yield (sensitization, emission at 1260 nm); assay type: physicochemical; settings: CD3OD; 2′-acetonaphthone (ΦΔ = 0.79) as actinometer
# Text: The important and necessary feature of the biocidal agents triggered by light is their ability to sensitize the formation of singlet oxygen. Having established the formation of triplet state by direct excitation of the oligomers 4a and 4b (but not 4c), we determined their ability to sensitize singlet oxygen in deuterated methanol (ΦΔ, Table 1). […] From the above results it is evident that the oligomer with terthiophene back bone is the most efficient sensitizer for singlet oxygen.
# as §1
# [4] = test system: Staphylococcus aureus (ATCC 10832); assay: Antibacterial studies, dead/live assay by flow cytometry (SYTO21 / propidium iodide); assay type: cell-based; settings: visible light substituted with UV light
# [5] = Transient absorption spectroscopy (triplet excited state); assay type: physicochemical; settings: for TTAbs (ΔA, t = 0): methanol, Abs=0.7 at λex, λex=355 nm for 4a and 4b, 425 nm for 4c, immediately following the laser pulse
# Description: Transient absorption experiments were carried out both in methanol and in water (excitation at 355 nm, 5 ns pulse, […] fluence). […] The important photophysical data obtained in methanol solution are consolidated in Table 1 (see supporting information for data in aqueous solution). FIGS. 5 and 6 compare transient absorption difference spectra obtained immediately following the laser pulse in methanol. […] Pulse energy and ground state absorption matched. […] The response curves from each of the repetitive time increments is indicated by sequential numbers 1-8 in both FIGS. 6A and 6B. Samples were purged with argon for 45 min before the measurements. A higher life time is observed for the triplet excited state in water than in methanol.
# as §1
# Fluorescence lifetime = assay type: physicochemical; settings: component amplitude in brackets
# [6] = Steady-state fluorescence spectra and fluorescence quantum yields relative to known standards; assay type: physicochemical
# Description: as §1
# [7] = visible light, 90 min of irradiation
# [8] = MeOH, quinine sulfate in 0.1M sulfuric acid (ΦF = 0.54) as actinometer
# [9] = Water, quinine sulfate in 0.1M sulfuric acid (ΦF = 0.54) as actinometer
SMILES,dark antibacterial activity / dark toxicity (in words) ([1]; dark),light-dependent toxicity versus the bacterial cells (in words) ([1]; visible light),"percentage of killed S. aureus cells [1, 7]",λmax (absorption) [2] [nm],λmax (Absorption/nm) [2] [nm],ΦΔ (singlet oxygen quantum yield) [3],TTAbs (λ/nm)/MeOH [5] [nm],TTAbs (λ/nm) in Water ([5]; Water) [nm],"TTAbs (ΔA, t = 0) [5]",λmax (fluorescence) ([6]; MeOH) [nm],"ΦF (fluorescence quantum yield) [6, 8]",λmax (Fluorescence/nm) ([6]; Water) [nm],"ΦF (fluorescence quantum yield) [6, 9]",also measured
C[N+](C)(C)CCCc1ccc(-c2ccc(-c3ccc(CCC[N+](C)(C)C)s3)s2)s1.[Cl-].[Cl-] [4a],not observed,marked light-dependent toxicity,~93%,364,368,0.74 ± 0.02,467,467,0.55,437,0.06 ± 0.02,437,0.058 ± 0.02,"biocidal activity at higher concentrations (in words) ([1]; in the presence of light, 5 and 10 μg/mL): virtually eliminates the bacterial population within a few minutes; concentration at which the compound is an effective biocide ([1]; in the presence of light, within 30 minutes): ≥ 1 µg/mL; shift of absorption in water compared to methanol ([2]; red shift for 4a, blue shift for 4b and 4c): ~4 nm; light activated antibacterial activity under UV light (in words) [4]: the most efficient compound in killing bacteria in the presence of light; TTAbs (ΔA, t = 0) in Water ([5]; Water): 0.43; τtriplet (μs) in Water ([5]; Water): 17.9 μs; τF/ns (MeOH) (Fluorescence lifetime; MeOH, 4a at 450 nm): 0.18 ns; τF/ns (Water) (Fluorescence lifetime; Water, 4a 450 nm, 4b 500 nm, 4c 600 nm): 0.19 ns"
Cn1nc2c(-c3ccc(CCC[N+](C)(C)C)s3)ccc(-c3ccc(CCC[N+](C)(C)C)s3)c2n1.[Cl-].[Cl-] [4b],not observed,marked light-dependent toxicity,about 35%,390,385,0.49 ± 0.03,492,492,0.39,460,0.51 ± 0.02,460,0.340 ± 0.02,
C[N+](C)(C)CCCc1ccc(-c2ccc(-c3ccc(CCC[N+](C)(C)C)s3)c3nsnc23)s1.[Cl-].[Cl-] [4c],significant dark toxicity,marked light-dependent toxicity,about 35%,,454,no singlet oxygen emission was detected,529,529,,615,,610,,"percentage of killed S. aureus cells ([1]; dark, 90 min of incubation): ~27%; ΦF (fluorescence quantum yield) ([6]; MeOH, fluorescein in 0.1M NaOH (ΦF = 0.92) as actinometer): 0.23 ± 0.02^b"
